{"source": "patent US12215104B2", "about": "“Anti-biofilm compounds” (UNIVERSITY OF LOUISVILLE RESEARCH FOUNDATION, INC., priority 2018, dated 2025)", "data": [{"system": "P. gingivalis adherence to S. gordonii", "assay": "Inhibition of P. gingivalis adherence to S. gordonii in two-species biofilm model", "type": "cell-based, P. gingivalis ATCC33277; S. gordonii DL-1", "details": "Group III", "source_text": "(§1) To assess the functional activity of the click products, compounds 28-57 (Groups I and II) and 90-124 (Group III) were examined for inhibition of P. gingivalis adherence to S. gordonii using an established biofilm model system as described in the Section 4.2.1 [41]. For each compound tested, an IC50 value for adherence inhibition was approximated after quantifying the ratio of green to red fluorescence and these values are shown in Tables 2, 3 and 4. Compounds were classified as strong (IC50<10 μM), moderate (IC50=10-20 μM) or weak (IC50>20 μM) inhibitors of adherence. Twelve compounds were identified as strong inhibitors and an additional ten compounds were classified as moderate inhibitors. […] Compounds 54, 56, 93, 95, 100, 102, 103, and 115 were also tested to determine if they affect the growth of P. gingivalis or S. gordonii. […] The sulfoxide group does impart asymmetry to the molecule; however, the mixture of enantiomers, assuming the peracid oxidation was racemic, was not separated and bioassayed. The Group III active compounds (95-117) all contain the 1,3,5-trisubstituted-2,4,6-triazine modeled after the Katzenellenbogen rendering of an active motif whereby the key leucine residues which mimicked the VXXLL receptor box lie in a triangular arrangement. While the original iteration of the Katzenellenbogen VXXLL mimics were the hydrophobic 3,5-disubstituted-di-N-alkyamino-triazine motifs, we introduced the hydrophobic 2- and 4-(fluorophenyl)amino groups at positions 3 and 5 of the 2,4,6-triazine (See Compounds 102, 111, 115, 122).\n(§2) P. gingivalis ATCC33277 was grown in reduced trypticase soy broth (Difco) supplemented with 0.5 percent yeast extract, 1 μg/mL menadione, and 5 μg/mL hemin. Twenty five milliliters of medium were reduced for 24 h under anaerobic conditions by equilibrating in an atmosphere consisting of 10% CO2, 10% H2, and 80% N2. Following equilibration, P. gingivalis was inoculated in the media and grown for 48 h at 37° C. under anaerobic conditions. S. gordonii DL-1 (1) was cultured aerobically without shaking in brain heart infusion (BHI) broth supplemented with 1 percent yeast extract for 16 hours at 37° C. For some compounds that inhibited P. gingivalis adherence to S. gordonii, we determined their affect the planktonic growth of P. gingivalis and S. gordonii. Broth cultures were grown as described above and compared to cultures grown in the absence of the compound. Cell density of each culture was determined by measuring the optical density at 600 nm (O.D.600 nm) after 24 h of growth. The percent growth inhibition/stimulation was calculated using the following equation: [(O.D.600 nm of the control/O.D.600 nm of the culture grown in the presence of compound)−1]×100.\n(§3) Two species biofilms were formed essentially as previously described. To prepare bacterial cells for biofilm culture, 10 ml of an overnight S. gordonii culture was centrifuged at 5600 rpm for 5 min and the cell pellet was suspended in 1 mL sterile PBS. Subsequently, 20 μL of 5 mg/ml hexidium iodide (Molecular Probes) was added to the cell suspension and incubated for 15 min with gentle shaking at room temperature in the dark. The labeled cells were centrifuged as described above, washed with phosphate buffered saline (10 mM Na2HPO4, […], […], and 2.7 mM KCl, pH 7.2; [PBS]) and the cell pellet was suspended in PBS at a final O.D.600 nm of 0.8. Similarly, 10 mL of a 48 h culture of P. gingivalis was centrifuged at 5600 rpm for 15 min, the cell pellet was suspended in 1 mL PBS and 20 μl of 5(6)-carboxyfluorescein N-hydroxysuccinimide ester (4 mg/ml, Molecular Probes, Inc.) was added. After incubation for 30 min with gentle shaking at room temperature in the dark, the suspension was centrifuged and washed as described above and suspended in PBS at a final O.D.600 nm of 0.4. […]", "units": {"IC50": "µM"}, "values": [{"smiles": "CCN(CC)c1nc(-c2cn(-c3cccc(-c4nc(-c5ccccc5)c(-c5ccccc5)o4)c3)nn2)nc(N(CC)CC)n1", "note": "[Compound 90]", "IC50": 20.7}, {"smiles": "CCN(CC)c1nc(-c2cn(-c3ccc(-c4nc(-c5ccccc5)c(-c5ccccc5)o4)cc3)nn2)nc(N(CC)CC)n1", "note": "[Compound 91]", "IC50": "> 60"}, {"smiles": "CCN(CC)c1nc(-c2cn(-c3cccc(-c4nc(-c5ccc(F)cc5)c(-c5ccc(F)cc5)o4)c3)nn2)nc(N(CC)CC)n1", "note": "[Compound 92]", "IC50": "> 60"}, {"smiles": "CCN(CC)c1nc(-c2cn(-c3cccc(-c4nc(-c5ccc(Cl)cc5)c(-c5ccc(Cl)cc5)o4)c3)nn2)nc(N(CC)CC)n1", "note": "[Compound 94]", "IC50": 16}, {"smiles": "CCN(CC)c1nc(-c2cn(-c3cccc(-c4nc(-c5ccc(OC)cc5)c(-c5ccc(OC)cc5)o4)c3)nn2)nc(N(CC)CC)n1", "note": "[Compound 96]", "IC50": "> 60"}, {"smiles": "CCN(CC)c1nc(-c2cn(-c3ccc(-c4nc(-c5ccc(OC)cc5)c(-c5ccc(OC)cc5)o4)cc3)nn2)nc(N(CC)CC)n1", "note": "[Compound 97]", "IC50": 36.6}, {"smiles": "CCN(CC)c1nc(-c2cn(-c3cccc(-c4nc(-c5ccco5)c(-c5ccco5)o4)c3)nn2)nc(N(CC)CC)n1", "note": "[Compound 98]", "IC50": "> 60"}, {"smiles": "CCN(CC)c1nc(-c2cn(-c3ccc(-c4nc(-c5ccco5)c(-c5ccco5)o4)cc3)nn2)nc(N(CC)CC)n1", "note": "[Compound 99]", "IC50": "> 60"}, {"smiles": "Fc1ccccc1Nc1nc(Nc2ccccc2F)nc(-c2cn(-c3ccc(-c4nc(-c5ccccc5)c(-c5ccccc5)o4)cc3)nn2)n1", "note": "[Compound 101]", "IC50": "> 60"}, {"smiles": "Fc1ccccc1Nc1nc(Nc2ccccc2F)nc(-c2cn(-c3cccc(-c4nc(-c5ccc(Cl)cc5)c(-c5ccc(Cl)cc5)o4)c3)nn2)n1", "note": "[Compound 104]", "IC50": 33.8}, {"smiles": "Fc1ccccc1Nc1nc(Nc2ccccc2F)nc(-c2cn(-c3ccc(-c4nc(-c5ccc(Cl)cc5)c(-c5ccc(Cl)cc5)o4)cc3)nn2)n1", "note": "[Compound 105]", "IC50": "> 60"}, {"smiles": "COc1ccc(-c2nc(-c3cccc(-n4cc(-c5nc(Nc6ccccc6F)nc(Nc6ccccc6F)n5)nn4)c3)oc2-c2ccc(OC)cc2)cc1", "note": "[Compound 106]", "IC50": "> 60"}, {"smiles": "COc1ccc(-c2nc(-c3ccc(-n4cc(-c5nc(Nc6ccccc6F)nc(Nc6ccccc6F)n5)nn4)cc3)oc2-c2ccc(OC)cc2)cc1", "note": "[Compound 107]", "IC50": 40}, {"smiles": "Fc1ccccc1Nc1nc(Nc2ccccc2F)nc(-c2cn(-c3cccc(-c4nc(-c5ccco5)c(-c5ccco5)o4)c3)nn2)n1", "note": "[Compound 108]", "IC50": "> 60"}, {"smiles": "Fc1ccccc1Nc1nc(Nc2ccccc2F)nc(-c2cn(-c3ccc(-c4nc(-c5ccco5)c(-c5ccco5)o4)cc3)nn2)n1", "note": "[Compound 109]", "IC50": "> 60"}, {"smiles": "Fc1ccc(Nc2nc(Nc3ccc(F)cc3)nc(-c3cn(-c4ccccc4-c4nc(-c5ccccc5)c(-c5ccccc5)o4)nn3)n2)cc1", "note": "[Compound 110]", "IC50": "> 60"}, {"smiles": "Fc1ccc(Nc2nc(Nc3ccc(F)cc3)nc(-c3cn(-c4ccc(-c5nc(-c6ccccc6)c(-c6ccccc6)o5)cc4)nn3)n2)cc1", "note": "[Compound 112]", "IC50": "> 60"}, {"smiles": "Fc1ccc(Nc2nc(Nc3ccc(F)cc3)nc(-c3cn(-c4ccccc4-c4nc(-c5ccc(F)cc5)c(-c5ccc(F)cc5)o4)nn3)n2)cc1", "note": "[Compound 113]", "IC50": 49.2}, {"smiles": "Fc1ccc(Nc2nc(Nc3ccc(F)cc3)nc(-c3cn(-c4cccc(-c5nc(-c6ccc(F)cc6)c(-c6ccc(F)cc6)o5)c4)nn3)n2)cc1", "note": "[Compound 114]", "IC50": "> 60"}]}, {"system": "P. gingivalis adherence to S. gordonii", "assay": "Inhibition of P. gingivalis adherence to S. gordonii in two-species biofilm model", "type": "cell-based, P. gingivalis ATCC33277; S. gordonii DL-1", "details": "Table 2, Group I triazoles; concentration reducing ratio of green (P. gingivalis) to red (S. gordonii) fluorescence by 50%; approximated", "source_text": "as §1, §2, §3", "units": {"IC50": "µM"}, "values": [{"smiles": "[O-][S+](Cc1nc(-c2ccccc2)c(-c2ccccc2)o1)c1ccc(-n2cc(-c3cccnc3)nn2)cc1", "note": "(racemic) [Compound 28, 4,5-Diphenyl-2-(((4-(4-(pyridin-3-yl)-1H-1,2,3-triazol-1-yl)phenyl)sulfinyl)methyl) oxazole]", "IC50": "> 60"}, {"smiles": "[O-][S+](Cc1nc(-c2ccccc2)c(-c2ccccc2)o1)c1ccc(-n2cc(-c3ccc(F)cc3)nn2)cc1", "note": "(centres unmarked) [Compound 29]", "IC50": "> 60"}, {"smiles": "[O-][S+](Cc1nc(-c2ccccc2)c(-c2ccccc2)o1)c1ccc(-n2cc(-c3cccc(F)c3)nn2)cc1", "note": "(centres unmarked) [Compound 30]", "IC50": 47.3}, {"smiles": "COc1ccccc1-c1cn(-c2ccc([S+]([O-])Cc3nc(-c4ccccc4)c(-c4ccccc4)o3)cc2)nn1", "note": "(centres unmarked) [Compound 31]", "IC50": "> 60"}, {"smiles": "[O-][S+](Cc1nc(-c2ccccc2)c(-c2ccccc2)o1)c1ccc(-n2cc(-c3ccccc3C(F)(F)F)nn2)cc1", "note": "(centres unmarked) [Compound 32]", "IC50": "> 60"}, {"smiles": "COc1ccc2cc(-c3cn(-c4ccc([S+]([O-])Cc5nc(-c6ccccc6)c(-c6ccccc6)o5)cc4)nn3)ccc2c1", "note": "(centres unmarked) [Compound 33]", "IC50": "> 60"}, {"smiles": "CCCCCc1ccc(-c2cn(-c3ccc([S+]([O-])Cc4nc(-c5ccccc5)c(-c5ccccc5)o4)cc3)nn2)cc1", "note": "(centres unmarked) [Compound 34]", "IC50": "> 60"}, {"smiles": "[O-][S+](Cc1nc(-c2ccccc2)c(-c2ccccc2)o1)c1ccc(-n2cc(-c3ccc(Oc4ccccc4)cc3)nn2)cc1", "note": "(centres unmarked) [Compound 35]", "IC50": "> 60"}, {"smiles": "[O-][S+](Cc1nc(-c2ccccc2)c(-c2ccccc2)o1)c1ccc(-n2cc(-c3cc(C(F)(F)F)cc(C(F)(F)F)c3)nn2)cc1", "note": "(centres unmarked) [Compound 36]", "IC50": "> 60"}, {"smiles": "O=S(=O)(Cc1nc(-c2ccccc2)c(-c2ccccc2)o1)c1ccc(-n2cc(-c3cccnc3)nn2)cc1", "note": "[Compound 37]", "IC50": "> 60"}, {"smiles": "O=S(=O)(Cc1nc(-c2ccccc2)c(-c2ccccc2)o1)c1ccc(-n2cc(-c3ccc(F)cc3)nn2)cc1", "note": "[Compound 38]", "IC50": 15.7}, {"smiles": "O=S(=O)(Cc1nc(-c2ccccc2)c(-c2ccccc2)o1)c1ccc(-n2cc(-c3cccc(F)c3)nn2)cc1", "note": "[Compound 39]", "IC50": 33.6}, {"smiles": "COc1ccccc1-c1cn(-c2ccc(S(=O)(=O)Cc3nc(-c4ccccc4)c(-c4ccccc4)o3)cc2)nn1", "note": "[Compound 40]", "IC50": 13.1}, {"smiles": "O=S(=O)(Cc1nc(-c2ccccc2)c(-c2ccccc2)o1)c1ccc(-n2cc(-c3ccccc3C(F)(F)F)nn2)cc1", "note": "[Compound 41]", "IC50": "> 60"}, {"smiles": "COc1ccc2cc(-c3cn(-c4ccc(S(=O)(=O)Cc5nc(-c6ccccc6)c(-c6ccccc6)o5)cc4)nn3)ccc2c1", "note": "[Compound 42]", "IC50": "> 60"}, {"smiles": "CCCCCc1ccc(-c2cn(-c3ccc(S(=O)(=O)Cc4nc(-c5ccccc5)c(-c5ccccc5)o4)cc3)nn2)cc1", "note": "[Compound 43]", "IC50": 36.6}, {"smiles": "O=S(=O)(Cc1nc(-c2ccccc2)c(-c2ccccc2)o1)c1ccc(-n2cc(-c3ccc(Oc4ccccc4)cc3)nn2)cc1", "note": "[Compound 44]", "IC50": 16.5}, {"smiles": "O=S(=O)(Cc1nc(-c2ccccc2)c(-c2ccccc2)o1)c1ccc(-n2cc(-c3cc(C(F)(F)F)cc(C(F)(F)F)c3)nn2)cc1", "note": "[Compound 45]", "IC50": 38.5}]}, {"system": "P. gingivalis adherence to S. gordonii", "assay": "Inhibition of P. gingivalis adherence to S. gordonii in two-species biofilm model", "type": "cell-based, P. gingivalis ATCC33277; S. gordonii DL-1", "details": "Table 3, Group II click products; concentration reducing green to red fluorescence ratio by 50%; approximated", "source_text": "as §1, §2, §3", "units": {"IC50": "µM"}, "values": [{"smiles": "[O-][S+](Cc1nc(-c2ccc(F)cc2)c(-c2ccc(F)cc2)o1)c1ccc(-n2cc(-c3cccc(F)c3)nn2)cc1", "note": "(centres unmarked) [Compound 46]", "IC50": 5.3}, {"smiles": "[O-][S+](Cc1nc(-c2ccc(F)cc2)c(-c2ccc(F)cc2)o1)c1ccc(-n2cc(-c3ccc(F)cc3)nn2)cc1", "note": "(centres unmarked) [Compound 47]", "IC50": 35.9}, {"smiles": "COc1ccccc1-c1cn(-c2ccc([S+]([O-])Cc3nc(-c4ccc(F)cc4)c(-c4ccc(F)cc4)o3)cc2)nn1", "note": "(centres unmarked) [Compound 48]", "IC50": 7.2}, {"smiles": "[O-][S+](Cc1nc(-c2ccc(Cl)cc2)c(-c2ccc(Cl)cc2)o1)c1ccc(-n2cc(-c3cccc(F)c3)nn2)cc1", "note": "(centres unmarked) [Compound 49]", "IC50": 15.1}, {"smiles": "[O-][S+](Cc1nc(-c2ccc(Cl)cc2)c(-c2ccc(Cl)cc2)o1)c1ccc(-n2cc(-c3ccc(F)cc3)nn2)cc1", "note": "(centres unmarked) [Compound 50]", "IC50": 39.8}, {"smiles": "COc1ccccc1-c1cn(-c2ccc([S+]([O-])Cc3nc(-c4ccc(Cl)cc4)c(-c4ccc(Cl)cc4)o3)cc2)nn1", "note": "(centres unmarked) [Compound 51]", "IC50": 10.2}, {"smiles": "O=S(=O)(Cc1nc(-c2ccc(Cl)cc2)c(-c2ccc(Cl)cc2)o1)c1ccc(-n2cc(-c3cccc(F)c3)nn2)cc1", "note": "[Compound 55]", "IC50": 18.2}]}]}
